Test system: transaldolase (Taizhou Lingfeng Biotechnology Co., Ltd., LF145)
Assay: Effect of acetaldehyde on the activity of transaldolase
Type: biochemical
Conditions: reaction 10 min, 35° C., HPLC, without acetaldehyde 3.31 g/L
Protocol: In a 50 mL round-bottom flask, 10 mL of a reaction system contained 14 g/L p-methylsulfonylbenzaldehyde, 10.5 g/L threonine, 1 g/L pyridoxal phosphate, and 1 mL of transaldolase (Taizhou Lingfeng Biotechnology Co., Ltd., LF145), different concentrations (0, 1 g/L, 5 g/L, 10 g/L, and 20 g/L) of acetaldehyde were respectively prepared, the mixture was shaken in a water bath at 35° C. for 10 min, and the content of D-acid produced was detected by HPLC.

Structure (SMILES): CC=O [acetaldehyde]
- (2S,3R)-p-methylsulfonylphenylserine produced (1 g/L acetaldehyde added): 1.76 g/L
- (2S,3R)-p-methylsulfonylphenylserine produced (5 g/L acetaldehyde added): 0.66 g/L
- (2S,3R)-p-methylsulfonylphenylserine produced (10 g/L acetaldehyde added): 0.303 g/L
- (2S,3R)-p-methylsulfonylphenylserine produced (20 g/L acetaldehyde added): 0.153 g/L

— patent US20250059574A1, “METHODS FOR PREPARING (2S,3R)-P-METHYLSULFONYLPHENYLSERINE” (TAIZHOU UNIVERSITY, priority 2023, published 2025)
